Tests used:
[1] = xn = mol fraction of the nth substance listed; settings: 298.15 K, 101.33 kPa, Liquid
[2] = excess molar enthalpy (molar enthalpy of mixing); xn = mol fraction of the nth substance listed; settings: 298.15 K, 101.33 kPa, Liquid

ClCCCl [1,2-dichloroethane] + CCOC(C)=O
Settings	excess molar enthalpy [kJ/mol]	mass density [kg/m3]
[1], x2 = 0.0497	–	1223.67
[1], x2 = 0.0983	–	1202.79
[1], x2 = 0.1492	–	1181.45
[1], x2 = 0.1997	–	1160.95
[1], x2 = 0.2524	–	1140.18
[1], x2 = 0.3059	–	1119.62
[1], x2 = 0.3618	–	1098.71
[1], x2 = 0.4184	–	1078.16
[1], x2 = 0.4765	–	1057.68
[1], x2 = 0.5356	–	1037.35
[1], x2 = 0.5982	–	1016.38
[1], x2 = 0.6603	–	996.21
[1], x2 = 0.7247	–	975.88
[1], x2 = 0.7893	–	955.96
[1], x2 = 0.857	–	935.65
[1], x2 = 0.928	–	914.85
[2], x2 = 0.0368	-0.0393	–
[2], x2 = 0.0819	-0.0877	–
[2], x2 = 0.131	-0.144	–
[2], x2 = 0.1846	-0.205	–
[2], x2 = 0.2408	-0.269	–
[2], x2 = 0.295	-0.326	–
[2], x2 = 0.3419	-0.363	–
[2], x2 = 0.3836	-0.391	–
[2], x2 = 0.4244	-0.422	–
[2], x2 = 0.46	-0.443	–
[2], x2 = 0.4728	-0.446	–
[2], x2 = 0.4972	-0.451	–
[2], x2 = 0.5087	-0.451	–
[2], x2 = 0.5523	-0.449	–
[2], x2 = 0.604	-0.436	–
[2], x2 = 0.6668	-0.404	–
[2], x2 = 0.747	-0.338	–
[2], x2 = 0.8328	-0.243	–
[2], x2 = 0.9184	-0.135	–

CCCCC(=O)OCC [ethyl pentanoate] + ClCCCl
Settings	excess molar enthalpy [kJ/mol]	mass density [kg/m3]
[1], x1 = 0.0345	–	1220.93
[1], x1 = 0.0687	–	1198.23
[1], x1 = 0.1042	–	1176.06
[1], x1 = 0.1425	–	1153.66
[1], x1 = 0.1817	–	1132.12
[1], x1 = 0.2273	–	1108.84
[1], x1 = 0.2723	–	1087.35
[1], x1 = 0.324	–	1064.47
[1], x1 = 0.3767	–	1042.83
[1], x1 = 0.4332	–	1021.3
[1], x1 = 0.4956	–	999.37
[1], x1 = 0.5633	–	977.31
[1], x1 = 0.6342	–	956.13
[1], x1 = 0.7134	–	934.52
[1], x1 = 0.7992	–	912.89
[1], x1 = 0.894	–	893.96
[2], x2 = 0.0371	-0.0298	–
[2], x2 = 0.098	-0.0613	–
[2], x2 = 0.126	-0.102	–
[2], x2 = 0.1732	-0.152	–
[2], x2 = 0.2196	-0.199	–
[2], x2 = 0.2666	-0.257	–
[2], x2 = 0.3122	-0.311	–
[2], x2 = 0.3542	-0.351	–
[2], x2 = 0.4265	-0.386	–
[2], x2 = 0.4641	-0.396	–
[2], x2 = 0.5103	-0.399	–
[2], x2 = 0.5638	-0.401	–
[2], x2 = 0.626	-0.383	–
[2], x2 = 0.7011	-0.342	–
[2], x2 = 0.7962	-0.258	–
[2], x2 = 0.896	-0.152	–

CCCCC(=O)OCC [ethyl pentanoate] + ClCCCCCl
Settings	excess molar enthalpy [kJ/mol]	mass density [kg/m3]
[1], x1 = 0.0426	–	1118.97
[1], x1 = 0.0881	–	1103.57
[1], x1 = 0.1345	–	1088.34
[1], x1 = 0.1844	–	1072.46
[1], x1 = 0.2407	–	1055.13
[1], x1 = 0.2932	–	1039.54
[1], x1 = 0.3462	–	1024.28
[1], x1 = 0.4021	–	1008.72
[1], x1 = 0.4541	–	994.67
[1], x1 = 0.5187	–	977.83
[1], x1 = 0.5829	–	961.7
[1], x1 = 0.6452	–	946.59
[1], x1 = 0.7045	–	932.66
[1], x1 = 0.7796	–	915.67
[1], x1 = 0.8521	–	899.89
[1], x1 = 0.925	–	884.57
[2], x2 = 0.0443	-0.0154	–
[2], x2 = 0.0938	-0.0412	–
[2], x2 = 0.1472	-0.0653	–
[2], x2 = 0.2021	-0.0957	–
[2], x2 = 0.2576	-0.133	–
[2], x2 = 0.3103	-0.167	–
[2], x2 = 0.3615	-0.206	–
[2], x2 = 0.4093	-0.231	–
[2], x2 = 0.4542	-0.254	–
[2], x2 = 0.4637	-0.26	–
[2], x2 = 0.5038	-0.269	–
[2], x2 = 0.5509	-0.273	–
[2], x2 = 0.6143	-0.267	–
[2], x2 = 0.6866	-0.247	–
[2], x2 = 0.7631	-0.211	–
[2], x2 = 0.8429	-0.156	–
[2], x2 = 0.9262	-0.0846	–

ClCCCCCCl [1,5-dichloropentane] + CCCC(=O)OCC
Settings	excess molar enthalpy [kJ/mol]	mass density [kg/m3]
[1], x2 = 0.0569	–	1082.35
[1], x2 = 0.1136	–	1069.48
[1], x2 = 0.171	–	1056.53
[1], x2 = 0.2286	–	1043.61
[1], x2 = 0.2917	–	1029.5
[1], x2 = 0.3489	–	1016.71
[1], x2 = 0.4084	–	1003.45
[1], x2 = 0.4653	–	990.76
[1], x2 = 0.5243	–	977.72
[1], x2 = 0.5825	–	964.82
[1], x2 = 0.6411	–	951.9
[1], x2 = 0.7595	–	925.89
[1], x2 = 0.8188	–	912.92
[1], x2 = 0.8799	–	899.6
[1], x2 = 0.9403	–	886.46
[2], x2 = 0.0571	-0.0082	–
[2], x2 = 0.1213	-0.0269	–
[2], x2 = 0.1884	-0.0501	–
[2], x2 = 0.2532	-0.0738	–
[2], x2 = 0.3155	-0.0983	–
[2], x2 = 0.3746	-0.124	–
[2], x2 = 0.4289	-0.151	–
[2], x2 = 0.478	-0.174	–
[2], x2 = 0.5235	-0.185	–
[2], x2 = 0.5576	-0.191	–
[2], x2 = 0.5639	-0.192	–
[2], x2 = 0.6129	-0.193	–
[2], x2 = 0.6726	-0.188	–
[2], x2 = 0.736	-0.168	–
[2], x2 = 0.8047	-0.138	–
[2], x2 = 0.8728	-0.0986	–
[2], x2 = 0.9406	-0.0475	–

ClCCCCCl [1,4-dichlorobutane] + CCOC(=O)CC
[1]
Settings	mass density [kg/m3]
x2 = 0.0587	1117.82
x2 = 0.1153	1103.37
x2 = 0.1718	1088.99
x2 = 0.2299	1074.24
x2 = 0.2859	1060.13
x2 = 0.3447	1045.32
x2 = 0.403	1030.76
x2 = 0.4615	1016.16
x2 = 0.5233	1000.86
x2 = 0.5825	986.22
x2 = 0.6382	972.47
x2 = 0.698	957.78
x2 = 0.8187	928.2
x2 = 0.8774	913.87
x2 = 0.9378	899.14

ClCCCCCCCl [1,6-dichlorohexane] + CCOC(=O)CC
[1]
Settings	mass density [kg/m3]
x2 = 0.0733	1053.16
x2 = 0.144	1042.66
x2 = 0.2117	1032.32
x2 = 0.2775	1021.98
x2 = 0.3418	1011.56
x2 = 0.4104	1000.12
x2 = 0.5264	979
x2 = 0.5884	968.62
x2 = 0.7491	937.72
x2 = 0.8052	926.3
x2 = 0.8547	915.96
x2 = 0.905	905.21
x2 = 0.9513	894.99
